Experimental data from patent US9585380B2, “SSAT mRNA translation repression and activation” (TEMPLE UNIVERSITY—Of The Commonwealth System of Higher …, priority 2011, dated 2017).
Counter-ions that a name gives are not always drawn.

system: SSAT translation; experiment: Drug screening with mutant 6 SSAT-luciferase reporter construct in transfected HEK 293T cells; type: cell-based, human; conditions: Homo sapiens, 12 h; procedure of Example 6 (10 μM, mutant 6 construct, HEK 293T), increase over basal SSAT translation
Protocol: The mutant 6 chimeric construct of Example 4 (A424C; A426C; FIG. 18G) cloned into pLEX MCS plasmid was utilized in drug screening as follows. HEK 293T cells (ATCC) were grown in DMEM supplemented with 10% fetal bovine serum and antibiotics. The HEK 293T cells were transfected with the mutant 6/pLEX MCS plasmid using HTS-Jetpei transfection reagent (Polyplus Transfection, Illkirch, France). Transfected HEK293T cells were incubated overnight at 37° C. After 24 hours, cells transfected cells in 96-well plates used for screening were treated with 10 μM of test compound from a compound library in DMSO. Untreated cells were used as the negative control, and cells treated with 10 μM DENSPM comprised a positive control. The luciferase signaling in each plate was independently analyzed using a Glomax Luminometer (Promega Corp.) by comparing the signals against the controls twelve hours after treatment.
The procedure of Example 6 was followed, screening for compounds that increase SSAT translation. The agents listed in Table 11 were identified as increasing SSAT translation by at least 35% over basal SSAT translation.

Point of comparison: CCc1ccc(CCOc2ccc(CC3SC(=O)NC3=O)cc2)nc1 (stereo not drawn) [Pioglitazone], activation at 10 µM 50%. Against it:
- CN(C)CCOC(C)(c1ccccc1)c1ccccn1 (stereo not drawn) [Doxylamine succinate] — higher, 62%
- CC(=O)OCC(=O)[C@@]12N=C(C)O[C@@H]1C[C@H]1[C@@H]3CCC4=CC(=O)C=C[C@]4(C)[C@H]3[C@@H](O)C[C@@]12C [Deflazacort] — lower, 37%
- c1ccc2[nH]c(-c3cscn3)nc2c1 [Tiabendazole] — lower, 39%
- Nc1ccc(/N=N/c2ccccc2)c(N)n1 [Phenazopyridine hydrochloride] — lower, 41%
- NCCNCCNCCNCCN [Tetraethylenepentamine pentahydrochloride] — higher, 60%
- Nc1[nH]c(=O)ncc1F [Flucytosine] — lower, 35%
- Nc1nc(NC2CC2)c2ncn([C@H]3C=C[C@@H](CO)C3)c2n1 [Abacavir Sulfate] — lower, 36%
- COc1ccc2cc(CCC(C)=O)ccc2c1 [Nabumetone] — higher, 59%
- C[C@]12CC[C@H]3C(=CCc4cc(O)ccc43)[C@@H]1CCC2=O [Equilin] — lower, 36%
- N=C(N)c1ccc(OCCCCCOc2ccc(C(=N)N)cc2)cc1 [Pentamidine isethionate] — lower, 36%

same assay, conditions: Homo sapiens; 10 μM test compound, HEK 293T cells transfected with mutant 6 construct, luciferase signal twelve hours after treatment

Point of comparison: Fc1ccc(C(OCCN2CCN(CCCc3ccccc3)CC2)c2ccc(F)cc2)cc1 [Vanoxerine dihydrochloride, 1-[2-[bis(4-fluorophenyl)methoxy]ethyl]-4-(3-phenylpropyl)piperazine•(HCl)2], inhibition at 10 µM 96.9%. Against it:
- Cc1cc(/C=C/c2ccc3cc(N(C)C)ccc3[n+]2C)c(C)n1-c1ccccc1 [Pyrvinium pamoate, 2-[(E)-2-(2,5-dimethyl-1-phenylpyrrol-3-yl)ethenyl]-N,N,1-trimethylquinolin-1-ium-6-amine] — lower, 92.5%
- CC(C)(C)c1ccc(C(O)CCCN2CCC(C(O)(c3ccccc3)c3ccccc3)CC2)cc1 (racemic) [Terfenadine, (RS)-1-(4-tert-butylphenyl)-4-{4-[hydroxy(diphenyl)methyl]piperidin-1-yl}-butan-1-ol] — higher, 100%
- CCCCCCCCCCCCCCCC[N+](C)(C)CCN(Cc1ccc(OC)cc1)c1ncccn1 [Thonzonium bromide, N-{2-[(4-Methoxybenzyl)(pyrimidin-2-yl)amino]ethyl}-N,N-dimethylhexadecan-1-aminium bromide] — higher, 99%
- C[C@]12CC[C@H](O)C[C@H]1CC[C@@H]1[C@@H]2CC[C@]2(C)[C@@H](C3=CC(=O)OC3)CC[C@]12O [Digitoxigenin, 3-β,14-dihydroxy-5-β,14-β-card-20(22)-enolide] — lower, 93.4%
- C[C@@H]1O[C@@H](O[C@@H]2C=C3CC[C@@H]4[C@H](CC[C@]5(C)[C@@H](c6ccc(=O)oc6)CC[C@]45O)[C@@]3(C)CC2)[C@H](O)[C@H](O)[C@H]1O [Proscillaridin A, (3β)-3-[(6-deoxy-α-L-mannopyranosyl)oxy]-14-hydroxybufa-4,20,22-trienolide] — lower, 94%
- O=C1NCCN1CCN1CCC(c2cn(-c3ccc(F)cc3)c3ccc(Cl)cc23)CC1 [Sertindole, 1-[2-[4-[5-chloro-1-(4-fluorophenyl)-indol-3-yl]-1-piperidyl]ethyl]-imidazolidin-2-one] — higher, 99.8%
- C=C1C(=O)O[C@H]2[C@H]1CC/C(C)=C/CC[C@@]1(C)O[C@@H]21 [Parthenolide, (1aR,7aS,10aS,10bS)-1a,5-dimethyl-8-methylene-2,3,6,7,7a,8,10a,10b-octahydrooxireno[9,10]cyclodeca [1,2-b]furan-9(1aH)-one] — higher, 99.2%
- C[C@H]1OC(OC2[C@@H](O)C[C@H](OC3[C@@H](O)CC(O[C@H]4CC[C@@]5(C)[C@H](CC[C@@H]6[C@@H]5C[C@@H](O)[C@]5(C)[C@@H](C7=CC(=O)OC7)CC[C@]65O)C4)O[C@@H]3C)O[C@@H]2C)C[C@H](O)C1O (stereo in doubt) [Digoxin, 4-[(3S,5R,8R,9S,10S,12R,13S,14S)-3-[(2S,4S,5R,6R)-5-[(2S,4S,5R,6R)-5-[(2S,4S,5R,6R)-4,5-dihydroxy-6-methyl-oxan-2-yl]oxy-4-hydroxy-6-methyl-oxan-2-yl]oxy-4-hydroxy-6-methyl-oxan-2-yl]oxy-12,14-dihydroxy-10,13-dimethyl-1,2,3,4,5,6,7,8,9,11,12,15,16,17-tetradecahydrocyclopenta[a]phenanthren-17-yl]-5H-furan-2-one] — lower, 93.9%
- CC=C(C)C(=O)O[C@H]1[C@H](OC(C)=O)[C@@]2(CO)C(CC1(C)C)C1=CCC3[C@@]4(C)CC[C@H](O[C@@H]5O[C@H](C(=O)O)[C@@H](O[C@@H]6O[C@H](CO)[C@@H](O)[C@H](O)[C@H]6O)[C@H](O)[C@H]5O[C@@H]5O[C@H](CO)[C@@H](O)[C@H](O)[C@H]5O)[C@](C)(CO)C4CC[C@@]3(C)[C@]1(C)C[C@H]2O (stereo partly drawn) [Beta-Escin, (3α,5β,14β,16α,21α,22α)-22-acetoxy-16,23,28-trihydroxy-1-{[(2Z)-2-methylbut-2-enoyl]oxy}olean-12-en-3-yl-α-D-gulopyranosyl-(1→2)-[a-L-mannopyranosyl-(1→4)]-β-D-allopyranosiduronic acid] — lower, 88.7%
- CC(=O)O[C@H]1C[C@H](OC2[C@@H](O)C[C@H](O[C@H]3[C@@H](O)C[C@H](O[C@H]4CC[C@@]5(C)[C@H](CC[C@@H]6[C@@H]5C[C@@H](O)[C@]5(C)[C@@H](C7=CC(=O)OC7)CC[C@]65O)C4)O[C@@H]3C)O[C@@H]2C)O[C@H](C)[C@H]1O[C@@H]1O[C@H](CO)[C@@H](O)[C@H](O)[C@H]1O (stereo partly drawn) [Lanatoside C, (3β,5β,12β)-3-{[β-D-glucopyranosyl-(1→4)-3-O-acetyl-2,6-dideoxy-β-D-ribo-hexopyranosyl-(1→4)-2,6-dideoxy-β-D-ribo-hexopyranosyl-(1→4)-2,6-dideoxy-β-D-ribo-hexopyranosyl]oxy}-12,14-dihydroxycard-20(22)-enolide] — lower, 91.8%
- CCCCCCCCN[C@H](C)[C@@H](O)c1ccc(SC(C)C)cc1 (relative stereo) [Suloctidil, (R*,S*)-4-((1-methylethyl)thio)-alpha-(1-(octylamino)ethyl)benzene-methanol] — higher, 99.9%
- O=C1NCN(c2ccccc2)C12CCN(CCCC(c1ccc(F)cc1)c1ccc(F)cc1)CC2 [Fluspirilen, 8-[4,4-Bis(4-fluorphenyl)butyl]-1-phenyl-1,3,8-triazaspiro[4,5] decan-4-on] — lower, 94.7%
- COc1ccc(CCN2CCC(Nc3nc4ccccc4n3Cc3ccc(F)cc3)CC2)cc1 [Astemizole, 1-[(4-fluorophenyl)methyl]-N-[1-[2-(4-methoxyphenyl)ethyl]-4-piperidyl]benzoimidazol-2-amine] — lower, 86.2%
- CCCCC(CC)CNC(=N)NC(=N)NCCCCCCNC(=N)NC(=N)NCC(CC)CCCC (stereo not drawn) [Alexidine dihydrochloride, 1,1′-Hexamethylene-bis[5-(2-ethylhexyl)biguanide] dihydrochloride] — higher, 99.6%
- O=C1CCc2ccc(OCCCCN3CCN(c4cccc(Cl)c4Cl)CC3)cc2N1 [Aripiprazole, 7-{4-[4-(2,3-dichlorophenyl)piperazin-1-yl]butoxy}-3,4-dihydroquinolin-2(1H)-one] — lower, 92.7%
- CN(C)CCOc1ccc(/C(=C(/CCCl)c2ccccc2)c2ccccc2)cc1 [Toremifene, 2-{4-[(1Z)-4-chloro-1,2-diphenyl-but-1-en-1-yl]phenoxy}-N,N-dimethylethanamine] — lower, 86.3%
- O=C1C=CC(=O)c2c1ccc1c2ccc2ccccc21 [Chrysene-1,4-quinone, chrysene-1,4-dione] — higher, 97.3%

same assay, conditions: procedure of Example 6 (10 μM, mutant 6 construct, HEK 293T), increase over basal SSAT translation

Point of comparison: CCCCNc1ccc(C(=O)OCCN(C)C)cc1.Cl [Tetracaïne hydrochloride], “% Increase in SSAT Translation” value 40%. Against it:
- Cc1c(O)c(=O)n(-c2ccccc2)n1C [Antipyrine, 4-hydroxy] — higher, 41%

system: SSAT translation; experiment: Reporter system: 5′ UTR lacking uORFs + SSAT coding sequence-luciferase chimeric construct in HEK293T cells; type: cell-based, human; conditions: wild-type SSAT-luciferase construct, luciferase 16 hours after addition, compared to untreated
Protocol: A chimeric construct (FIG. 15A) comprising a fragment of the 5′ UTR of SSAT lacking the uORF's (see FIG. 7), the SSAT coding sequence (see FIG. 8B), and the luciferase coding sequence was prepared. The SSAT coding sequence is linked in-frame to the luciferase coding sequence. The construct was prepared using appropriate primers and template nucleic acid, and conventional PCR methods. The construct was cloned into pLEX-MCS. To evaluate the effect of small molecules on translation of the chimeric construct, the chimeric construct was transiently transfected into HEK293T cells. The small molecule to be tested was added 24 hours after transfection of the vector. Luciferase activity was evaluated 16 hours after the addition of the small molecule using the ONE-Glo™ Luciferase Assay System (Promega, Madison, Wis.). The luminescence intensity was determined using a GloMax® luminometer (Promega).
In view of the discovery of the contribution of uORF's on translational repression of SSAT mRNA, a reporter system was developed to detect pharmacophores that can modulate SSAT translation. The reporter system is a chimeric construct comprising a 5′ UTR lacking the uORF's and the SSAT coding sequence linked in-frame to the luciferase coding sequence. (FIG. 15A). The 5′ UTR comprises 66 nucleotides of the native 5′UTR immediately upstream of the starting AUG codon.
Release of translational repression of the chimeric construct was tested in the presence of several small molecules. Release of translational repression was assessed by detection of luciferase activity. The small molecules tested were: DENSPM and three uncharacterized polyamine analogs designated polyamine analog 1; polyamine analog 2; and polyamine analog 3. Cisplatin and 5-FU were tested as negative controls.

With N.N.[Cl][Pt][Cl] [cisplatin, Cisplatin] the “Release of translational repression of the chimeric construct (luciferase activity)” value was “about the same as in the absence of a small molecule”.
In the case of O=c1[nH]cc(F)c(=O)[nH]1 [Mutant 5-FU, 5-FU], the “Release of translational repression of the chimeric construct (luciferase activity)” value is reported as “about the same as in the absence of a small molecule”.
